This passage reports IC50 and viability, T/C results from PubChem BioAssay AID1918954 (Molecular Pharmacology Branch, DTP, NCI, 2023).

Structures are written as SMILES. Where “and” joins values, the source holds several entries; their conditions need not be identical. Equal entries are not always repeated. Some results are limits rather than exact numbers.

The experiment concerns MDA-MB-468 complex spheroids with HUVEC/MSC, viability. As to the kind of experiment: Anticancer human tumor MDA-MB-468 cell line growth inhibition.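 On all read-outs here: spheroids exposed to agents for seven days.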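 On viability, T/C: 100% = DMSO vehicle control viability.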 The note with it: for viability, T/C: stronger effect = lower value. The essentials: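 Multicellular complex spheroids of tumor cells with human endothelial cells (HUVEC) and mesenchymal stem cells; the LSD1 inhibitor iadademstat was combined with standard-of-care or investigational agents. Top concentration at or near clinical Cmax, half-log dilutions; final DMSO ≤0.25%.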

Where [1] appears, read: curve of first compound, second compound 0.1 µM.
Setting [2] is: curve of first compound, second compound 0.316 µM.
Setting [3] is: curve of first compound, second compound 1 µM.
The mark [4] stands for this setting: curve of first compound, second compound 3.16 µM.
[5] abbreviates: curve of first compound, second compound 10 µM.
Setting [6] is: second compound 0.1 µM, first compound 0.00949 µM.
The mark [7] stands for this setting: second compound 0.1 µM, first compound 0.03 µM.
Where [8] appears, read: second compound 0.1 µM, first compound 0.0949 µM.
The mark [9] stands for this setting: second compound 0.1 µM, first compound 0.3 µM.
[10] abbreviates: second compound 0.1 µM, first compound 0.949 µM.
Setting [11] is: second compound 0.1 µM, first compound 3 µM.
The mark [12] stands for this setting: second compound 0.316 µM, first compound 0.00949 µM.
[13] abbreviates: second compound 0.316 µM, first compound 0.03 µM.
[14] abbreviates: second compound 0.316 µM, first compound 0.0949 µM.
[15] abbreviates: second compound 0.316 µM, first compound 0.3 µM.
Where [16] appears, read: second compound 0.316 µM, first compound 0.949 µM.
The mark [17] stands for this setting: second compound 0.316 µM, first compound 3 µM.
The mark [18] stands for this setting: second compound 1 µM, first compound 0.00949 µM.
The mark [19] stands for this setting: second compound 1 µM, first compound 0.03 µM.
The mark [20] stands for this setting: second compound 1 µM, first compound 0.0949 µM.
Where [21] appears, read: second compound 1 µM, first compound 0.3 µM.
[22] abbreviates: second compound 1 µM, first compound 0.949 µM.
[23] abbreviates: second compound 1 µM, first compound 3 µM.
The mark [24] stands for this setting: second compound 3.16 µM, first compound 0.00949 µM.
[25] abbreviates: second compound 3.16 µM, first compound 0.03 µM.
[26] abbreviates: second compound 3.16 µM, first compound 0.0949 µM.
The mark [27] stands for this setting: second compound 3.16 µM, first compound 0.3 µM.
[28] abbreviates: second compound 3.16 µM, first compound 0.949 µM.
Setting [29] is: second compound 3.16 µM, first compound 3 µM.
[30] abbreviates: second compound 10 µM, first compound 0.00949 µM.
[31] abbreviates: second compound 10 µM, first compound 0.03 µM.
[32] abbreviates: second compound 10 µM, first compound 0.0949 µM.
[33] abbreviates: second compound 10 µM, first compound 0.3 µM.
[34] abbreviates: second compound 10 µM, first compound 0.949 µM.
Setting [35] is: second compound 10 µM, first compound 3 µM.

With `O=C(C=Cc1cccc(S(=O)(=O)Nc2ccccc2)c1)NO` + NC1CCC(NC2CC2c2ccccc2)CC1, the IC50 is, setting by setting: under setting [1], 81.6 nM; under setting [2], 77.5 nM; under setting [3], 67.3 nM; under setting [4], 61.3 nM; under setting [5], 9.78 nM. Also, the viability, T/C is, setting by setting: under setting [6], 90.7%; under setting [7], 81.5%; under setting [8], 44.5%; under setting [9], 15%; under setting [10], 2.65%; under setting [11], 4.46%. The viability, T/C is 86.7% under setting [12]; 73.6% under setting [13]; 45.1% under setting [14]; 17% under setting [15]; 2.84% under setting [16]; 4.29% under setting [17]. Moreover, the viability, T/C is, setting by setting: under setting [18], 74.1%; under setting [19], 65.7%; under setting [20], 42.9%; under setting [21], 18.7%; under setting [22], 3.4%; under setting [23], 3.26%. Also, the viability, T/C by setting is: under setting [24], 68.9%; under setting [25], 64.4%; under setting [26], 41%; under setting [27], 15.4%; under setting [28], 3.52%; under setting [29], 3.55%. Further, the viability, T/C under setting [30] is 49.8%; the viability, T/C under setting [31] is 48.4%; the viability, T/C under setting [32] was 36.3%; the viability, T/C under setting [33] was 13.8%; the viability, T/C under setting [34] is 3.3%; the viability, T/C under setting [35] was 2.37%.
Take `CC(C)CC(NC(=O)C(Cc1ccccc1)NC(=O)c1cnccn1)B(O)O` (centres undefined): the viability, T/C reads like this: (compound 0.00316 µM) 0.95% and 0.15%; (compound 0.01 µM) 1.2% and 0.15%; (compound 0.0316 µM) 1.22% and 0.17%; (compound 0.1 µM) 1.51% and 0.22%. Further, the IC50 (curve of compound) was 0.684 nM and < 0.316 nM.
For `CC1(C)CCC(CN2CCN(c3ccc(C(=O)NS(=O)(=O)c4ccc(NCC5CCOCC5)c([N+](=O)[O-])c4)c(Oc4cnc5[nH]ccc5c4)c3)CC2)=C(c2ccc(Cl)cc2)C1` + NC1CCC(NC2CC2c2ccccc2)CC1, the IC50 stood at 5550 nM under setting [1]; 5700 nM under setting [2]; 3810 nM under setting [3]; 4460 nM under setting [4]; 4240 nM under setting [5]. For the same compound, the viability, T/C was 92.8% (second compound 0.1 µM, first compound 0.0316 µM); 87% (second compound 0.1 µM, first compound 0.1 µM); 103% (second compound 0.1 µM, first compound 0.316 µM); 98.6% (second compound 0.1 µM, first compound 1 µM); 70% (second compound 0.1 µM, first compound 3.16 µM); 29.1% (second compound 0.1 µM, first compound 10 µM). The viability, T/C was 99.8% (second compound 0.316 µM, first compound 0.0316 µM); 119% (second compound 0.316 µM, first compound 0.1 µM); 128% (second compound 0.316 µM, first compound 0.316 µM); 87.6% (second compound 0.316 µM, first compound 1 µM); 78% (second compound 0.316 µM, first compound 3.16 µM); 26.4% (second compound 0.316 µM, first compound 10 µM). Besides, the viability, T/C is 73.9% (second compound 1 µM, first compound 0.0316 µM); 113% (second compound 1 µM, first compound 0.1 µM); 94.8% (second compound 1 µM, first compound 0.316 µM); 79.1% (second compound 1 µM, first compound 1 µM); 54% (second compound 1 µM, first compound 3.16 µM); 34.8% (second compound 1 µM, first compound 10 µM). Further, the viability, T/C (second compound 3.16 µM, first compound 0.0316 µM) is 87.9%; the viability, T/C (second compound 3.16 µM, first compound 0.1 µM) was 95.5%; the viability, T/C (second compound 3.16 µM, first compound 0.316 µM) was 78.1%; the viability, T/C (second compound 3.16 µM, first compound 1 µM) is 76.6%; the viability, T/C (second compound 3.16 µM, first compound 3.16 µM) is 61.2%; the viability, T/C (second compound 3.16 µM, first compound 10 µM) was 27.2%. The viability, T/C was 71.2% (second compound 10 µM, first compound 0.0316 µM); 68.7% (second compound 10 µM, first compound 0.1 µM); 67.1% (second compound 10 µM, first compound 0.316 µM); 65.3% (second compound 10 µM, first compound 1 µM); 58.1% (second compound 10 µM, first compound 3.16 µM); 27.8% (second compound 10 µM, first compound 10 µM).
With `O=C(c1cc(Cc2n[nH]c(=O)c3ccccc23)ccc1F)N1CCN(C(=O)C2CC2)CC1`, the viability, T/C (compound 0.0316 µM) is 94.3% and 76.8%; the viability, T/C (compound 0.1 µM) was 73.5% and 79.1%; the viability, T/C (compound 0.316 µM) is 75% and 69.3%; the viability, T/C (compound 1 µM) was 52.9% and 52.6%; the viability, T/C (compound 3.16 µM) is 21.7% and 20.2%; the viability, T/C (compound 10 µM) is 22.6% and 21.4%. For the same compound, under “curve of compound”, the IC50 is 989 nM and 1050 nM.
For the compound `O=C(C=Cn1cnc(-c2cc(C(F)(F)F)cc(C(F)(F)F)c2)n1)NNc1cnccn1`, the viability, T/C (compound 0.00316 µM) was 39.9% and 36.5%; the viability, T/C (compound 0.01 µM) is 29.8% and 27.9%; the viability, T/C (compound 0.0316 µM) was 8.39% and 16.7%; the viability, T/C (compound 0.1 µM) is 3.01% and 3.24%; the viability, T/C (compound 0.316 µM) was 2.33% and 1.39%; the viability, T/C (compound 1 µM) is 1.59% and 0.94%. For the same compound, the IC50 (curve of compound) is less than 3.16 nM.
On to `COc1cc(C2c3cc4c(cc3C(OC3OC5COC(C)OC5C(O)C3O)C3COC(=O)C23)OCO4)cc(OC)c1O` (centres undefined) + NC1CCC(NC2CC2c2ccccc2)CC1, for which the IC50 came to 99.2 nM under setting [1]; 93.1 nM under setting [2]; 89.2 nM under setting [3]; 76.6 nM under setting [4]; 52.6 nM under setting [5]. Besides, the viability, T/C runs as follows: under setting [6], 83.6%; under setting [7], 91.3%; under setting [8], 51.6%; under setting [9], 13.8%; under setting [10], 10.8%; under setting [11], 8.8%. Also, the viability, T/C is 82.6% under setting [12]; 72.3% under setting [13]; 51.2% under setting [14]; 14.3% under setting [15]; 12.5% under setting [16]; 9.23% under setting [17]. The viability, T/C is 90.7% under setting [18]; 77.2% under setting [19]; 50.8% under setting [20]; 13.8% under setting [21]; 12.8% under setting [22]; 8.57% under setting [23]. In addition, the viability, T/C was 67.6% under setting [24]; 68.2% under setting [25]; 45.9% under setting [26]; 15.5% under setting [27]; 15.3% under setting [28]; 8.59% under setting [29]. Besides, the viability, T/C was 55.5% under setting [30]; 64.5% under setting [31]; 39.5% under setting [32]; 17.1% under setting [33]; 17.2% under setting [34]; 11% under setting [35].

A word on the IC50: it is the midpoint of a concentration-inhibition curve. Usually viability, T/C stands for the ratio of treated to control.
